Values after ≈ are worked out from the molar mass of the structure shown. Non-standard residues stand in square brackets, D forms with d. Residues, ends and D or L forms follow the SMILES beside them. dDip = N[C@@H](C(=O)O)C(c1ccccc1)c1ccccc1; Dip = N[C@H](C(=O)O)C(c1ccccc1)c1ccccc1; 2Nal = N[C@@H](Cc1ccc2ccccc2c1)C(=O)O; d2Nal = N[C@H](Cc1ccc2ccccc2c1)C(=O)O
Experiments:
[1] = system: Pseudomonas aeruginosa (ATCC 27883); settings: ATCC 27883
in vitro = settings: human, fresh human red blood cells (washed), pH 7.4
S. aureus ATCC 29213 = settings: ATCC 29213
[2] = system: Methicillin-resistant Staphylococcus aureus MRSA (ATCC BAA-1556); settings: ATCC BAA-1556
[3] = system: Escherichia coli (ATCC 25922); settings: ATCC 25922
human red blood cells = system: human red blood cells; design: unit not given beside the values

| SMILES | MIC P. aeruginosa ATCC 27883 [1] | HC50 at 0.5 h (in vitro) | MIC S. aureus ATCC 29213 (S. aureus ATCC 29213) | MIC MRSA ATCC BAA-1556 [2] | MIC E. coli ATCC 25922 [3] | HC50 (human red blood cells) |
| --- | --- | --- | --- | --- | --- | --- |
| N=C(N)NCCC[C@@H]1NC(=O)[C@H](CCCNC(=N)N)NC(=O)[C@H](CCCNC(=N)N)NC(=O)[C@H](CCCNC(=N)N)NC(=O)[C@@H](Cc2ccc3ccccc3c2)NC(=O)[C@H](Cc2ccc3ccccc3c2)NC(=O)[C@H](Cc2ccc3ccccc3c2)NC1=O [IFX-074, c[Arg-Arg-Arg-Arg-NaI-NaI-naI]] (cyclo(RRRR[2Nal][2Nal][d2Nal])) | 12.5 µg/mL (≈ 10.3 µM) | 200 µg/mL |  |  |  |  |
| N=C(N)NCCC[C@@H]1NC(=O)[C@H](Cc2ccc3ccccc3c2)NC(=O)[C@@H](Cc2ccc3ccccc3c2)NC(=O)[C@H](Cc2ccc3ccccc3c2)NC(=O)[C@@H](CCCNC(=N)N)NC(=O)[C@H](CCCNC(=N)N)NC(=O)[C@@H](CCCNC(=N)N)NC1=O [IFX-085, c[Arg-arg-Arg-arg-NaI-naI-NaI]] (cyclo(R[dR]R[dR][2Nal][d2Nal][2Nal])) | 12.5 µg/mL (≈ 10.3 µM) | 145 µg/mL |  |  |  |  |
| N=C(N)NCCC[C@@H]1NC(=O)[C@H](CCCNC(=N)N)NC(=O)[C@H](CCCNC(=N)N)NC(=O)[C@@H](C(c2ccccc2)c2ccccc2)NC(=O)[C@@H](C(c2ccccc2)c2ccccc2)NC(=O)[C@@H](C(c2ccccc2)c2ccccc2)NC(=O)[C@H](CCCNC(=N)N)NC1=O [IFX-072, c[Arg-Arg-Arg-Arg-dip-dip-dip]] (cyclo(RRRR[dDip][dDip][dDip])) | 12.5 µg/mL (≈ 9.66 µM) | 265 µg/mL |  |  |  |  |
| N=C(N)NCCC[C@@H]1NC(=O)[C@H](CCCNC(=N)N)NC(=O)[C@@H](CCCNC(=N)N)NC(=O)[C@H](CCCNC(=N)N)NC(=O)[C@H](Cc2ccc3ccccc3c2)NC(=O)[C@H](Cc2ccc3ccccc3c2)NC(=O)[C@H](Cc2ccc3ccccc3c2)NC1=O [IFX-079, c[Arg-arg-Arg-Arg-NaI-NaI-NaI]] (cyclo(R[dR]RR[2Nal][2Nal][2Nal])) | 12.5 µg/mL (≈ 10.3 µM) | 100 µg/mL |  |  |  |  |
| N=C(N)NCCC[C@@H]1NC(=O)[C@H](C(c2ccccc2)c2ccccc2)NC(=O)[C@@H](C(c2ccccc2)c2ccccc2)NC(=O)[C@H](C(c2ccccc2)c2ccccc2)NC(=O)[C@@H](CCCNC(=N)N)NC(=O)[C@H](CCCNC(=N)N)NC(=O)[C@@H](CCCNC(=N)N)NC1=O [IFX-071, c[Arg-arg-Arg-arg-Dip-dip-Dip]] (cyclo(R[dR]R[dR][Dip][dDip][Dip])) | 12.5 µg/mL (≈ 9.66 µM) | 150 µg/mL |  |  |  |  |
| N=C(N)NCCC[C@H]1NC(=O)[C@H](C(c2ccccc2)c2ccccc2)NC(=O)[C@H](C(c2ccccc2)c2ccccc2)NC(=O)[C@H](C(c2ccccc2)c2ccccc2)NC(=O)[C@@H](CCCNC(=N)N)NC(=O)[C@@H](CCCNC(=N)N)NC(=O)[C@@H](CCCNC(=N)N)NC1=O [IFX-073, c[arg-arg-arg-arg-Dip-Dip-Dip]] (cyclo([dR][dR][dR][dR][Dip][Dip][Dip])) | 6.2 µg/mL (≈ 4.79 µM) | 245 µg/mL |  |  |  |  |
| N=C(N)NCCC[C@H]1NC(=O)[C@H](Cc2ccc3ccccc3c2)NC(=O)[C@H](Cc2ccc3ccccc3c2)NC(=O)[C@H](Cc2ccc3ccccc3c2)NC(=O)[C@@H](CCCNC(=N)N)NC(=O)[C@@H](CCCNC(=N)N)NC(=O)[C@@H](CCCNC(=N)N)NC1=O [IFX-087, c[arg-arg-arg-arg-NaI-NaI-NaI]] (cyclo([dR][dR][dR][dR][2Nal][2Nal][2Nal])) | 12.5 µg/mL (≈ 10.3 µM) | 145 µg/mL |  |  |  |  |
| N=C(N)NCCC[C@H]1NC(=O)[C@@H](CCCNC(=N)N)NC(=O)[C@@H](CCCNC(=N)N)NC(=O)[C@@H](Cc2c[nH]c3ccccc23)NC(=O)[C@@H](Cc2c[nH]c3ccccc23)NC(=O)[C@@H](Cc2c[nH]c3ccccc23)NC(=O)[C@@H](Cc2c[nH]c3ccccc23)NC(=O)[C@@H](CCCNC(=N)N)NC(=O)[C@@H](CCCNC(=N)N)NC1=O [IFX-037, c[arg-arg-arg-arg-arg-trp-trp-trp-trp]] | 25 µg/mL (≈ 16.4 µM) |  | 3.1 µg/mL (≈ 2.03 µM) | 6.2 µg/mL (≈ 4.06 µM) | 12.5 µg/mL (≈ 8.19 µM) | 670 |

Source: patent US20220289794A1, “SYNTHETIC ANTIMICROBIAL PEPTIDES” (priority 2019, published 2022)
